# Results published in US10945932B2, “Prebiotic oral care compositions containing carboxylic acids” (COLGATE-PALMOLIVE COMPANY, priority 2013, dated 2021).
# Where two headings read alike, the source gives them in different places.
# Assays:
# Actinomyces naeslundii = test: Metabolic activity, Biolog phenotype microarray; assay type: cell-based; conditions: A naeslundii
# Actinomyces viscosus = test: Metabolic activity, Biolog phenotype microarray; assay type: cell-based; conditions: A viscosus
# [1] = system: Aggregatibacter actinomycetemcomitans; test: Metabolic activity, Biolog phenotype microarray; assay type: cell-based; conditions: A actinomycetemcomitans
# Capnocytophaga sputigena [2] = test: Metabolic activity, Biolog phenotype microarray; assay type: cell-based; conditions: C sputigena
# Fusobacterium nucleatum = test: Metabolic activity, Biolog phenotype microarray; assay type: cell-based; conditions: F nucleatum
# Porphyromonas gingivalis [3] = test: Metabolic activity, Biolog phenotype microarray; assay type: cell-based; conditions: P gingivalis
# Prevotella intermedia [4] = test: Metabolic activity, Biolog phenotype microarray; assay type: cell-based; conditions: P intermedia
# Streptococcus gordonii [5] = test: Metabolic activity, Biolog phenotype microarray; assay type: cell-based; conditions: S gordonii
# Streptococcus mitis [6] = test: Metabolic activity, Biolog phenotype microarray; assay type: cell-based; conditions: S mitis
# Streptococcus mutans [7] = test: Metabolic activity, Biolog phenotype microarray; assay type: cell-based; conditions: S mutans
# Streptococcus salivarius [8] = test: Metabolic activity, Biolog phenotype microarray; assay type: cell-based; conditions: S salivarius
# Streptococcus sanguinis [9] = test: Metabolic activity, Biolog phenotype microarray; assay type: cell-based; conditions: S sanguinis
# Streptococcus sobrinus = test: Metabolic activity, Biolog phenotype microarray; assay type: cell-based; conditions: S sobrinus
# Tannerella forsythia = test: Metabolic activity, Biolog phenotype microarray; assay type: cell-based; conditions: T forsythia
# Veillonella parvula = test: Metabolic activity, Biolog phenotype microarray; assay type: cell-based; conditions: V parvula
# [10] = system: beneficial oral bacteria and pathogenic oral bacteria; test: Metabolic activity, prebiotic effect over the whole panel; assay type: cell-based; conditions: threshold value of 2
# Porphyromonas gingivalis [11] = conditions: P gingivalis, BHI
# Method: (§1) Late exponential growth phase liquid cultures were prepared by transferring the respective bacterium from blood agar plates to BHI and overnight incubation at 37° C. in an anaerobic atmosphere for A. viscosus, V. parvula, F. nucleatum, P. gingivalis, P. intermedia, T forsythia, A. naeslundii, and C. sputigena, and in a 5% CO2 environment for S. salivarius, S. sanguinis, S. mitis, A. actinomycetemcomitans, S. mutans, S. sobrinus and S. gordonii. Overnight cultures were transferred to BHI and adjusted to a concentration of 1×10^7 CFU/ml (colony forming units per ml) by measuring the optical density at 600 nm (OD600) (BioRad SmartSpec 3000). For each strain, 200 μl of the bacterial suspension was added to a 96-well plate containing 20 μl of the respective carboxylic acids. Final concentrations of the carboxylic acids were set to 5, 10, 20 and 25 μmol/ml. […] Plates were incubated as previously described.
# (§2) For each combination of bacterium/carboxylic acid, and for each of their respective controls (i.e. the particular bacterium in the nutritionally rich medium with no carboxylic acid), the optical density was measured at 630 nm (OD630) at 0 h, 24 h and 48 h (Thermo Scientific Multiskan Ascent). Additionally, the OD630 for combinations of bacterium/carboxylic acid grown in a 5% CO2 environment were also measured every hour between 0 h and 9 h.
# (§3) The experiment was carried out on three different days (thus providing 3 biological replicas) and on each day the experiment was carried out in quadruple (thus providing 4 technical replicas) for each combination of bacterium with carboxylic acid and for each control. For each day and for each combination, the average (mean) of the values obtained (as detailed above) for the four technical replicas was calculated to provide a single value for each combination on each day.
# Prevotella intermedia [12] = conditions: P intermedia, BHI
# Method: as §1, §2, §3
# Streptococcus mutans [13] = conditions: S mutans, BHI
# Method: as §1, §2, §3
# Capnocytophaga sputigena [14] = conditions: C sputigena, BHI
# Method: as §1, §2, §3
# Streptococcus gordonii [15] = conditions: S gordonii, BHI
# Method: as §1, §2, §3
# Streptococcus salivarius [16] = conditions: S salivarius, BHI
# Method: as §1, §2, §3
# Streptococcus sanguinis [17] = conditions: S sanguinis, BHI
# Method: as §1, §2, §3
# Streptococcus mitis [18] = conditions: S mitis, BHI
# Method: as §1, §2, §3
smiles,measurement,setting,value
"O=C(O)CCC(=O)O [Succinic acid, succinic acid]","metabolic activity, OD at 492 nm divided by OD of control (control = 1)",Actinomyces naeslundii; 24 hrs,0.9767
same,"metabolic activity, OD at 492 nm divided by OD of control (control = 1)",Actinomyces naeslundii; 48 hrs,0.9858
same,"metabolic activity, OD at 492 nm divided by OD of control (control = 1)",Actinomyces viscosus; 24 hrs,0.9752
same,"metabolic activity, OD at 492 nm divided by OD of control (control = 1)",Actinomyces viscosus; 48 hrs,1.0089
same,"metabolic activity, OD at 492 nm divided by OD of control (control = 1)",[1]; 24 hrs,1.1066
same,"metabolic activity, OD at 492 nm divided by OD of control (control = 1)",[1]; 48 hrs,1.2815
same,"metabolic activity, OD at 492 nm divided by OD of control (control = 1)",Capnocytophaga sputigena [2]; 24 hrs,1.0400
same,"metabolic activity, OD at 492 nm divided by OD of control (control = 1)",Capnocytophaga sputigena [2]; 48 hrs,1.0105
same,"metabolic activity, OD at 492 nm divided by OD of control (control = 1)",Fusobacterium nucleatum; 24 hrs,0.8508
same,"metabolic activity, OD at 492 nm divided by OD of control (control = 1)",Fusobacterium nucleatum; 48 hrs,0.8574
same,"metabolic activity, OD at 492 nm divided by OD of control (control = 1)",Porphyromonas gingivalis [3]; 24 hrs,0.8726
same,"metabolic activity, OD at 492 nm divided by OD of control (control = 1)",Porphyromonas gingivalis [3]; 48 hrs,0.9109
same,"metabolic activity, OD at 492 nm divided by OD of control (control = 1)",Prevotella intermedia [4]; 24 hrs,1.0677
same,"metabolic activity, OD at 492 nm divided by OD of control (control = 1)",Prevotella intermedia [4]; 48 hrs,1.1361
same,"metabolic activity, OD at 492 nm divided by OD of control (control = 1)",Streptococcus gordonii [5]; 24 hrs,0.7960
same,"metabolic activity, OD at 492 nm divided by OD of control (control = 1)",Streptococcus gordonii [5]; 48 hrs,0.8167
same,"metabolic activity, OD at 492 nm divided by OD of control (control = 1)",Streptococcus mitis [6]; 24 hrs,0.9268
same,"metabolic activity, OD at 492 nm divided by OD of control (control = 1)",Streptococcus mitis [6]; 48 hrs,0.8537
same,"metabolic activity, OD at 492 nm divided by OD of control (control = 1)",Streptococcus mutans [7]; 24 hrs,0.8991
same,"metabolic activity, OD at 492 nm divided by OD of control (control = 1)",Streptococcus mutans [7]; 48 hrs,0.8576
same,"metabolic activity, OD at 492 nm divided by OD of control (control = 1)",Streptococcus salivarius [8]; 24 hrs,0.9019
same,"metabolic activity, OD at 492 nm divided by OD of control (control = 1)",Streptococcus salivarius [8]; 48 hrs,0.8347
same,"metabolic activity, OD at 492 nm divided by OD of control (control = 1)",Streptococcus sanguinis [9]; 24 hrs,0.9046
same,"metabolic activity, OD at 492 nm divided by OD of control (control = 1)",Streptococcus sanguinis [9]; 48 hrs,0.8763
same,"metabolic activity, OD at 492 nm divided by OD of control (control = 1)",Streptococcus sobrinus; 24 hrs,0.8265
same,"metabolic activity, OD at 492 nm divided by OD of control (control = 1)",Streptococcus sobrinus; 48 hrs,0.8068
same,"metabolic activity, OD at 492 nm divided by OD of control (control = 1)",Tannerella forsythia; 24 hrs,0.9307
same,"metabolic activity, OD at 492 nm divided by OD of control (control = 1)",Tannerella forsythia; 48 hrs,0.9641
same,"metabolic activity, OD at 492 nm divided by OD of control (control = 1)",Veillonella parvula; 24 hrs,2.8247
same,"metabolic activity, OD at 492 nm divided by OD of control (control = 1)",Veillonella parvula; 48 hrs,2.2852
same,prebiotic effect (metabolic activity),[10]; 24 hrs,exhibited prebiotic effects
same,prebiotic effect (metabolic activity),[10]; 48 hrs,exhibited prebiotic effects
same,"extent of growth, maximal OD630 over 48 hr divided by maximal OD of control (control = 1)",Porphyromonas gingivalis [11]; 5 μmol/ml,1.0091
same,"extent of growth, maximal OD630 over 48 hr divided by maximal OD of control (control = 1)",Porphyromonas gingivalis [11]; 10 μmol/ml,0.8129
same,"extent of growth, maximal OD630 over 48 hr divided by maximal OD of control (control = 1)",Porphyromonas gingivalis [11]; 20 μmol/ml,0.4103
same,"extent of growth, maximal OD630 over 48 hr divided by maximal OD of control (control = 1)",Porphyromonas gingivalis [11]; 25 μmol/ml,0.4061
same,"extent of growth, maximal OD630 over 48 hr divided by maximal OD of control (control = 1)",Prevotella intermedia [12]; 5 μmol/ml,0.8288
same,"extent of growth, maximal OD630 over 48 hr divided by maximal OD of control (control = 1)",Prevotella intermedia [12]; 10 μmol/ml,0.4471
same,"extent of growth, maximal OD630 over 48 hr divided by maximal OD of control (control = 1)",Prevotella intermedia [12]; 20 μmol/ml,0.0944
same,"extent of growth, maximal OD630 over 48 hr divided by maximal OD of control (control = 1)",Prevotella intermedia [12]; 25 μmol/ml,0.0921
same,"extent of growth, maximal OD630 over 48 hr divided by maximal OD of control (control = 1)",Streptococcus mutans [13]; 5 μmol/ml,0.8643
same,"extent of growth, maximal OD630 over 48 hr divided by maximal OD of control (control = 1)",Streptococcus mutans [13]; 10 μmol/ml,0.8599
same,"extent of growth, maximal OD630 over 48 hr divided by maximal OD of control (control = 1)",Streptococcus mutans [13]; 20 μmol/ml,0.8734
same,"extent of growth, maximal OD630 over 48 hr divided by maximal OD of control (control = 1)",Streptococcus mutans [13]; 25 μmol/ml,0.8448
same,"extent of growth, maximal OD630 over 48 hr divided by maximal OD of control (control = 1)",Capnocytophaga sputigena [14]; 5 μmol/ml,0.9743
same,"extent of growth, maximal OD630 over 48 hr divided by maximal OD of control (control = 1)",Capnocytophaga sputigena [14]; 10 μmol/ml,0.7668
same,"extent of growth, maximal OD630 over 48 hr divided by maximal OD of control (control = 1)",Capnocytophaga sputigena [14]; 20 μmol/ml,0.6198
same,"extent of growth, maximal OD630 over 48 hr divided by maximal OD of control (control = 1)",Capnocytophaga sputigena [14]; 25 μmol/ml,0.4571
same,"extent of growth, maximal OD630 over 48 hr divided by maximal OD of control (control = 1)",Streptococcus gordonii [15]; 5 μmol/ml,0.8555
same,"extent of growth, maximal OD630 over 48 hr divided by maximal OD of control (control = 1)",Streptococcus gordonii [15]; 10 μmol/ml,0.7021
same,"extent of growth, maximal OD630 over 48 hr divided by maximal OD of control (control = 1)",Streptococcus gordonii [15]; 20 μmol/ml,0.2928
same,"extent of growth, maximal OD630 over 48 hr divided by maximal OD of control (control = 1)",Streptococcus gordonii [15]; 25 μmol/ml,0.1860
same,"extent of growth, maximal OD630 over 48 hr divided by maximal OD of control (control = 1)",Streptococcus salivarius [16]; 5 μmol/ml,1.0823
same,"extent of growth, maximal OD630 over 48 hr divided by maximal OD of control (control = 1)",Streptococcus salivarius [16]; 10 μmol/ml,0.8904
same,"extent of growth, maximal OD630 over 48 hr divided by maximal OD of control (control = 1)",Streptococcus salivarius [16]; 20 μmol/ml,0.2795
same,"extent of growth, maximal OD630 over 48 hr divided by maximal OD of control (control = 1)",Streptococcus salivarius [16]; 25 μmol/ml,0.2197
same,"extent of growth, maximal OD630 over 48 hr divided by maximal OD of control (control = 1)",Streptococcus sanguinis [17]; 5 μmol/ml,0.7980
same,"extent of growth, maximal OD630 over 48 hr divided by maximal OD of control (control = 1)",Streptococcus sanguinis [17]; 10 μmol/ml,0.6726
same,"extent of growth, maximal OD630 over 48 hr divided by maximal OD of control (control = 1)",Streptococcus sanguinis [17]; 20 μmol/ml,0.2724
same,"extent of growth, maximal OD630 over 48 hr divided by maximal OD of control (control = 1)",Streptococcus sanguinis [17]; 25 μmol/ml,0.2132
same,"extent of growth, maximal OD630 over 48 hr divided by maximal OD of control (control = 1)",Streptococcus mitis [18]; 5 μmol/ml,0.7273
same,"extent of growth, maximal OD630 over 48 hr divided by maximal OD of control (control = 1)",Streptococcus mitis [18]; 10 μmol/ml,0.7615
same,"extent of growth, maximal OD630 over 48 hr divided by maximal OD of control (control = 1)",Streptococcus mitis [18]; 20 μmol/ml,0.4339
same,"extent of growth, maximal OD630 over 48 hr divided by maximal OD of control (control = 1)",Streptococcus mitis [18]; 25 μmol/ml,0.1591
